Test results published in ChEMBL document CHEMBL5518188, “Discovery of 4-amino-1,6-dihydro-7H-pyrrolo[2,3-d]pyridazin-7-one derivatives as potential receptor-interacting serine/threonine-protein kinase 1 (RIPK1) inhibitors” (Eur J Med Chem, 2024).

What was measured:
[1] = biological target: T1, Receptor-interacting serine/threonine-protein kinase 1 (Homo sapiens, UniProt Q13546); assay: Inhibition of RIPK1 (unknown origin) in presence of ATP by kinaseProfiler assay
T1 sequence (Q13546 whole entry): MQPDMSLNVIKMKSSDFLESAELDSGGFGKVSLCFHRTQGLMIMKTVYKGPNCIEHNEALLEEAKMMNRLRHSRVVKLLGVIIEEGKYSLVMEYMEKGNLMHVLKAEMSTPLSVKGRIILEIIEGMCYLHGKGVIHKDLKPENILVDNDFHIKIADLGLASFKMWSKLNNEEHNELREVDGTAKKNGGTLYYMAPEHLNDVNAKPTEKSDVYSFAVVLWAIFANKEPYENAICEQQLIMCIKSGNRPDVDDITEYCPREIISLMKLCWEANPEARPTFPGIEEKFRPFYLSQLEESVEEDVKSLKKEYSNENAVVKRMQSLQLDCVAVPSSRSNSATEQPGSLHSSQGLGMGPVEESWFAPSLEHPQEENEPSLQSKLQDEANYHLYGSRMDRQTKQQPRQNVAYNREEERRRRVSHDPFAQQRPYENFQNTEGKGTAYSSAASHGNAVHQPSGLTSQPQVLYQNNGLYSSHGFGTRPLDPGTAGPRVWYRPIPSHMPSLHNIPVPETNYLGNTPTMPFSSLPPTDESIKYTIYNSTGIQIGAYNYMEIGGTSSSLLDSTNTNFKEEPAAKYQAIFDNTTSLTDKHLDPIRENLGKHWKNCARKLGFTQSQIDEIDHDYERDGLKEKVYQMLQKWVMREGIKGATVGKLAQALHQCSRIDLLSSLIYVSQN

HT-29 = assay: Anti-necroptosis activity against TSZ-induced human HT-29 cells; format: functional, cell-based
U-937 = assay: Anti-necroptosis activity against TSZ-induced human U-937 cells; format: functional, cell-based
L929 = assay: Anti-necroptosis activity against TSZ-induced mouse L929 cells; format: functional, cell-based
[2] = Metabolic stability in cryopreserved human liver microsome assessed as half life; format: ADME; conditions: cryopreserved liver microsomes

With Nc1n[nH]c(=O)c2c1c(-c1ccc3c(c1)CCN3C(=O)Cc1cccc(OC(F)(F)F)c1)nn2Cc1ccc(F)cc1 the IC50 [1] was 290 nM, the EC50 (HT-29) was 257 nM and the EC50 (U-937) was 112 nM. For the same molecule, the EC50 (L929) was 30.2 nM.

Cn1nc(-c2ccc3c(c2)CCN3C(=O)Cc2cccc(OC(F)(F)F)c2)c2c(N)n[nH]c(=O)c21 showed an IC50 [1] of 140 nM, an EC50 (HT-29) of 21.4 nM and an EC50 (U-937) of 37.1 nM. For the same molecule, the EC50 (L929) was 3.4 nM.

Molecule CCCn1nc(-c2ccc3c(c2)CCN3C(=O)Cc2cccc(OC(F)(F)F)c2)c2c(N)n[nH]c(=O)c21 has an IC50 [1] of 120 nM, an EC50 (HT-29) of 6.84 nM and an EC50 (U-937) of 0.46 nM. The EC50 (L929) was 1.42 nM and the half-life [2] was 21.1 min.

CCn1nc(-c2ccc3c(c2)CCN3C(=O)Cc2ccccc2)c2c(N)n[nH]c(=O)c21 showed an IC50 [1] greater than 1000 nM, an EC50 (HT-29) of 546 nM and an EC50 (U-937) of 1020 nM. The EC50 (L929) was 142 nM.

In the case of CCn1nc(-c2ccc3c(c2)CCN3C(=O)CCc2ccccc2)c2c(N)n[nH]c(=O)c21, the IC50 [1] is reported as 191 nM, the EC50 (HT-29) is reported as 149 nM and the EC50 (U-937) is reported as 232 nM. It also gave an EC50 (L929) of 42.1 nM.

Work on CCn1nc(-c2ccc3c(c2)CCN3C(=O)[C@H](C)c2ccccc2)c2c(N)n[nH]c(=O)c21 yielded an IC50 [1] greater than 1000 nM, an EC50 (HT-29) greater than 1000 nM and an EC50 (U-937) greater than 1000 nM. The EC50 (L929) was greater than 1000 nM.

For CCn1nc(-c2ccc3c(c2)CCN3C(=O)Cc2cccc(OC)c2)c2c(N)n[nH]c(=O)c21, the IC50 [1] was greater than 1000 nM.

In the case of CC(C)Cn1cc(-c2ccc3c(c2)CCN3C(=O)Cc2cccc(OC(F)(F)F)c2)c2c(N)n[nH]c(=O)c21, the IC50 [1] is reported as 44.7 nM, the EC50 (HT-29) is reported as 1.61 nM and the EC50 (U-937) is reported as 1.84 nM. The EC50 (L929) was 8.8 nM and the half-life [2] was 19.6 min.

With CCn1nc(-c2ccc3c(c2)CCN3C(=O)CCc2cccc(OC(F)(F)F)c2)c2c(N)n[nH]c(=O)c21 the IC50 [1] was 97.6 nM, the EC50 (HT-29) was 4.62 nM and the EC50 (U-937) was 4.82 nM. For the same molecule, the EC50 (L929) was 20.3 nM.

Work on CC1(Cn2nc(-c3ccc4c(c3)CCN4C(=O)Cc3cccc(OC(F)(F)F)c3)c3c(N)n[nH]c(=O)c32)COC1 yielded an IC50 [1] of 79.8 nM, an EC50 (HT-29) of 5.57 nM and an EC50 (U-937) of 3.9 nM. The EC50 (L929) was 1.85 nM and the half-life [2] was 13.2 min.

With CC(C)Cn1nc(-c2ccc3c(c2)CCN3C(=O)Cc2cccc(OC(F)(F)F)c2)c2c(N)n[nH]c(=O)c21 the IC50 [1] was 133 nM, the EC50 (HT-29) was 6.19 nM and the EC50 (U-937) was 9.75 nM. It also gave an EC50 (L929) of 1.36 nM and a half-life [2] of 18.1 min.

For CCn1nc(-c2ccc3c(c2)CCN3C(=O)C2(c3ccccc3)CC2)c2c(N)n[nH]c(=O)c21, the IC50 [1] was greater than 1000 nM, the EC50 (HT-29) was greater than 1000 nM and the EC50 (U-937) was greater than 1000 nM. The EC50 (L929) was greater than 1000 nM.

In the case of CC(C)=CCn1nc(-c2ccc3c(c2)CCN3C(=O)Cc2cccc(OC(F)(F)F)c2)c2c(N)n[nH]c(=O)c21, the IC50 [1] is reported as 64.3 nM, the EC50 (HT-29) is reported as 11.3 nM and the EC50 (U-937) is reported as 22.7 nM. For the same molecule, the EC50 (L929) was 1.38 nM and the half-life [2] was 26.6 min.

With CCn1nc(-c2ccc3c(c2)CCN3C(=O)CC2CCCCC2)c2c(N)n[nH]c(=O)c21 the IC50 [1] was greater than 1000 nM, the EC50 (HT-29) was 891 nM and the EC50 (U-937) was 879 nM. For the same molecule, the EC50 (L929) was 64.5 nM.

For CCn1cc(-c2ccc3c(c2)CCN3C(=O)Cc2cccc(OC(F)(F)F)c2)c2c(=O)[nH]cnc21, the IC50 [1] was greater than 1000 nM.

Molecule CCn1nc(-c2ccc3c(c2)CCN3C(=O)Cc2cccc(C(F)(F)F)c2)c2c(N)n[nH]c(=O)c21 has an IC50 [1] of 135 nM, an EC50 (HT-29) of 11.3 nM and an EC50 (U-937) of 1.38 nM. It also gave an EC50 (L929) of 1.75 nM.

With CCn1nc(-c2ccc3c(c2)CCN3C(=O)CCc2cccc(C(F)(F)F)c2)c2c(N)n[nH]c(=O)c21 the IC50 [1] was 111 nM, the EC50 (HT-29) was 19.3 nM and the EC50 (U-937) was 33 nM. It also gave an EC50 (L929) of 4.71 nM.

Nc1n[nH]c(=O)c2c1c(-c1ccc3c(c1)CCN3C(=O)Cc1cccc(OC(F)(F)F)c1)nn2CCC1CCCC1 showed an IC50 [1] greater than 1000 nM, an EC50 (HT-29) of 134 nM and an EC50 (U-937) of 60.1 nM. It also gave an EC50 (L929) of 7.61 nM.

With CCn1nc(-c2ccc3c(c2)CCN3C(=O)Cc2cccc(F)c2F)c2c(N)n[nH]c(=O)c21 the IC50 [1] was greater than 1000 nM, the EC50 (HT-29) was 579 nM and the EC50 (U-937) was 946 nM. The EC50 (L929) was 123 nM.

With NC(=O)c1cc(-c2ccc3c(c2)CCN3C(=O)Cc2cccc(OC(F)(F)F)c2)ccc1N the IC50 [1] was greater than 1000 nM.

With CCn1nc(-c2ccc3c(c2)CCN3C(=O)Cc2cc(F)cc(C(F)(F)F)c2)c2c(N)n[nH]c(=O)c21 the IC50 [1] was 475 nM, the EC50 (HT-29) was 331 nM and the EC50 (U-937) was 283 nM. The EC50 (L929) was 12.8 nM.

Nc1n[nH]c(=O)c2c1c(-c1ccc3c(c1)CCN3C(=O)Cc1cccc(OC(F)(F)F)c1)nn2CCC1CC1 gave an IC50 [1] of 70.3 nM, an EC50 (HT-29) of 18.2 nM and an EC50 (U-937) of 4.04 nM. For the same molecule, the EC50 (L929) was 3.67 nM.

With CC(C)CCn1nc(-c2ccc3c(c2)CCN3C(=O)Cc2cccc(OC(F)(F)F)c2)c2c(N)n[nH]c(=O)c21 the IC50 [1] was 114 nM, the EC50 (HT-29) was 8.24 nM and the EC50 (U-937) was 18.5 nM. The EC50 (L929) was 6.36 nM.

For CC(C)(C)c1ccc(Cn2nc(-c3ccc4c(c3)CCN4C(=O)Cc3cccc(OC(F)(F)F)c3)c3c(N)n[nH]c(=O)c32)cc1, the IC50 [1] was greater than 1000 nM, the EC50 (HT-29) was greater than 1000 nM and the EC50 (U-937) was greater than 1000 nM. For the same molecule, the EC50 (L929) was 659 nM.

Nc1n[nH]c(=O)c2c1c(-c1ccc3c(c1)CCN3C(=O)Cc1cccc(OC(F)(F)F)c1)nn2CC1CCC1 gave an IC50 [1] of 68.4 nM, an EC50 (HT-29) of 34 nM and an EC50 (U-937) of 1.87 nM. The EC50 (L929) was 1.35 nM.

CCn1cc(-c2ccc3c(c2)CCN3C(=O)Cc2cccc(OC(F)(F)F)c2)c2ncnc(N)c21 showed an IC50 [1] greater than 1000 nM.

With NC(=O)c1cccc(-c2ccc3c(c2)CCN3C(=O)Cc2cccc(OC(F)(F)F)c2)c1 the IC50 [1] was 102 nM.

With CCn1nc(-c2ccc3c(c2)CCN3Cc2cccc(OC(F)(F)F)c2)c2c(N)n[nH]c(=O)c21 the IC50 [1] was greater than 1000 nM, the EC50 (HT-29) was greater than 1000 nM and the EC50 (U-937) was 990 nM. For the same molecule, the EC50 (L929) was 451 nM.

In the case of Nc1nc2cccc(-c3ccc4c(c3)CCN4C(=O)Cc3cccc(OC(F)(F)F)c3)n2n1, the IC50 [1] is reported as greater than 1000 nM.

For CCn1nc(-c2ccc3c(c2)CCN3C(=O)Cc2ccc3c(c2)OCO3)c2c(N)n[nH]c(=O)c21, the IC50 [1] was 915 nM, the EC50 (HT-29) was 562 nM and the EC50 (U-937) was 703 nM. It also gave an EC50 (L929) of 114 nM.

Nc1n[nH]c(=O)c2c1c(-c1ccc3c(c1)CCN3C(=O)Cc1cccc(OC(F)(F)F)c1)nn2CCC1CCCCC1 gave an IC50 [1] greater than 1000 nM, an EC50 (HT-29) of 246 nM and an EC50 (U-937) of 103 nM. The EC50 (L929) was 16.2 nM.

CCn1nc(-c2ccc3c(c2)CCN3C(C)=O)c2c(N)n[nH]c(=O)c21 gave an IC50 [1] greater than 1000 nM.

With CCn1nc(-c2ccc3c(c2)CCN3C(=O)Cc2cccc(F)c2)c2c(N)n[nH]c(=O)c21 the IC50 [1] was greater than 1000 nM, the EC50 (HT-29) was 597 nM and the EC50 (U-937) was 722 nM. For the same molecule, the EC50 (L929) was 45.6 nM.

Molecule CCNc1ncnc(N)c1-c1ccc2c(c1)CCN2C(=O)Cc1cccc(OC(F)(F)F)c1 has an IC50 [1] greater than 1000 nM.

CCn1nc(-c2ccc3c(c2)CCN3C(=O)Cc2ccc(OC(F)(F)F)cc2)c2c(N)n[nH]c(=O)c21 gave an IC50 [1] of 177 nM, an EC50 (HT-29) greater than 1000 nM and an EC50 (U-937) of 638 nM. The EC50 (L929) was 726 nM.

In the case of CCc1nc(-c2ccc3c(c2)CCN3C(=O)Cc2cccc(OC(F)(F)F)c2)c2c(N)nccn12, the IC50 [1] is reported as 112 nM.

Work on CCn1nc(-c2ccc3c(c2)CCN3C(=O)c2cccc(OC(F)(F)F)c2)c2c(N)n[nH]c(=O)c21 yielded an IC50 [1] greater than 1000 nM, an EC50 (HT-29) greater than 1000 nM and an EC50 (U-937) greater than 1000 nM. It also gave an EC50 (L929) greater than 1000 nM.

Molecule Nc1n[nH]c(=O)c2c1c(-c1ccc3c(c1)CCN3C(=O)Cc1cccc(OC(F)(F)F)c1)nn2CCN1CCCC1 has an IC50 [1] of 512 nM, an EC50 (HT-29) of 63 nM and an EC50 (U-937) of 173 nM. The EC50 (L929) was 54.4 nM.

With CCn1nc(-c2ccc3c(c2)CCN3C(=O)Cc2ccc(Oc3ccccc3)cc2)c2c(N)n[nH]c(=O)c21 the IC50 [1] was 941 nM, the EC50 (HT-29) was 905 nM and the EC50 (U-937) was 812 nM. It also gave an EC50 (L929) of 311 nM.

With NC(=O)c1cncc(-c2ccc3c(c2)CCN3C(=O)Cc2cccc(OC(F)(F)F)c2)c1 the IC50 [1] was 157 nM.
